{"source": "ChEMBL document CHEMBL1143643", "about": "“Synthesis and evaluation of antiplatelet activity of trihydroxychalcone derivatives” (Bioorg Med Chem Lett, 2005)", "key": {"Oryctolagus cuniculus [1]": {"species_on_record": "Oryctolagus cuniculus", "experiment": "In vitro inhibitory effects on collagen induced rabbit platelet aggregation upon incubation at 37 degree C for 4 minutes", "assay_type": "functional"}, "Oryctolagus cuniculus [2]": {"species_on_record": "Oryctolagus cuniculus", "experiment": "In vitro inhibitory effects on arachidonic acid induced rabbit platelet aggregation upon incubation at 37 degree C for 4 minutes", "assay_type": "functional"}}, "note": "pIC50: −log10 of the molar value.", "data": [{"smiles": "CN(C)c1ccc(/C=C/C(=O)c2c(O)cc(O)cc2O)cc1", "values": [{"measurement": "pIC50", "setting": "Oryctolagus cuniculus [1]", "value": "< 4.00"}, {"measurement": "pIC50", "setting": "Oryctolagus cuniculus [2]", "value": "< 4.00"}]}, {"smiles": "COc1cc(/C=C/C(=O)c2c(O)cc(O)cc2O)ccc1OCc1ccccc1", "values": [{"measurement": "pIC50", "setting": "Oryctolagus cuniculus [1]", "value": 4.43}, {"measurement": "pIC50", "setting": "Oryctolagus cuniculus [2]", "value": 4.55}]}]}
